Key:
[1] = erlotinib 150 mg daily with sorafenib; cycle 1 days +15, 16, 22, 29
[2] = Safety, adverse events; format: in vivo, human; conditions: of 11 patients
[3] = phase I trial of sorafenib plus gefitinib; cited from earlier work
[4] = Sorafenib plasma pharmacokinetics in patients, with and without erlotinib; format: in vivo, human; conditions: for Cmax / Tmax / AUC: human, plasma, oral
[5] = test system: RAF signal transduction capacity (MEK1/2 phosphorylation) in monocytes; experiment: MEK1/2 pShift assay; format: cell-based, human; conditions: patient 5, one sample, after 7 days of sorafenib (25.9% before sorafenib)
[6] = test system: incurable solid tumor; experiment: Tumor response; format: in vivo, human; conditions: per patient

## C#Cc1cccc(Nc2ncnc3cc(OCCOC)c(OCCOC)cc23)c1 [erlotinib]
[1]
  mean trough erlotinib concentration (Css,min): around 500 ng/ml
[2]
  patients needing at least 1 dose delay: 7 patients
  patients with doses delivered in full throughout the study: 6 patients
  patients with doses reduced: 2 patients
  patients with drug discontinued: 3 patients

## COc1cc2ncnc(Nc3ccc(F)c(Cl)c3)c2cc1OCCCN1CCOCC1 [gefitinib]
[3]
  change of gefitinib Cmax and AUC in the presence of sorafenib: decrease

## CNC(=O)c1cc(Oc2ccc(NC(=O)Nc3ccc(Cl)c(C(F)(F)F)c3)cc2)ccn1 [sorafenib]
[2]
  patients needing at least 1 dose delay: Nine
  patients with doses delivered in full throughout the study: 4 patients
  patients with doses reduced: 7 patients
[4]; day −2 vs day +15, Wilcoxon signed rank test
  differences in PK variables of sorafenib in the presence or absence of erlotinib: No statistically significant differences
[4]
  Cmax: 8600 ng/mL
  Tmax: 4 h
[4]; 150 mg
  AUC: 53200 ng·h/mL
[4]; 400 mg
  AUC: 70900 ng·h/mL
[4]; 400 mg bid
  Cmax: 8600 ng/mL
  Tmax: 4.2 h
[5]
  additional monocytes shifted to the upper gate with IL3 versus vehicle (pShift): 0.7%
[6]
  TTP: 15 days

Source: paper PMC2838726 (Molecular cancer therapeutics, 2010)
